The target of assay [1] is T1, EphA2-ephrin-A1 interaction (EphA2-Fc ectodomain) (Mus musculus, UniProt Q03145). Format: binding. As to conditions: for Activity in EphA2-ephrin-A1 binding assay, in words: tested starting from 200 μM; for Schild plot slope: slope between 0.8 and 1.2 indicates competitive binding.
Assay [2] deals with EphA receptors (vs EphB receptors). The format is binding. As to conditions: compared with lithocholic acid.
Assay [3] concerns the target EphA2 receptor (Mus musculus, UniProt Q03145). The experiment in a line: Surface plasmon resonance. Format: binding. The following applies: for Kd: SPR. For orientation: Surface plasmon resonance follows binding to a sensor surface in real time, without labels.
Assay [4] has as its target EphA2 receptor (Homo sapiens, UniProt P29317). The experiment in a line: EphA2 phosphorylation induced by ephrin-A1-Fc in PC3 cells. Format: cell-based. As to conditions: no ephrin, data not shown.
Another assay addresses T2, EphB4 receptor (Homo sapiens, UniProt P54760).
T2 sequence (P54760 16-987): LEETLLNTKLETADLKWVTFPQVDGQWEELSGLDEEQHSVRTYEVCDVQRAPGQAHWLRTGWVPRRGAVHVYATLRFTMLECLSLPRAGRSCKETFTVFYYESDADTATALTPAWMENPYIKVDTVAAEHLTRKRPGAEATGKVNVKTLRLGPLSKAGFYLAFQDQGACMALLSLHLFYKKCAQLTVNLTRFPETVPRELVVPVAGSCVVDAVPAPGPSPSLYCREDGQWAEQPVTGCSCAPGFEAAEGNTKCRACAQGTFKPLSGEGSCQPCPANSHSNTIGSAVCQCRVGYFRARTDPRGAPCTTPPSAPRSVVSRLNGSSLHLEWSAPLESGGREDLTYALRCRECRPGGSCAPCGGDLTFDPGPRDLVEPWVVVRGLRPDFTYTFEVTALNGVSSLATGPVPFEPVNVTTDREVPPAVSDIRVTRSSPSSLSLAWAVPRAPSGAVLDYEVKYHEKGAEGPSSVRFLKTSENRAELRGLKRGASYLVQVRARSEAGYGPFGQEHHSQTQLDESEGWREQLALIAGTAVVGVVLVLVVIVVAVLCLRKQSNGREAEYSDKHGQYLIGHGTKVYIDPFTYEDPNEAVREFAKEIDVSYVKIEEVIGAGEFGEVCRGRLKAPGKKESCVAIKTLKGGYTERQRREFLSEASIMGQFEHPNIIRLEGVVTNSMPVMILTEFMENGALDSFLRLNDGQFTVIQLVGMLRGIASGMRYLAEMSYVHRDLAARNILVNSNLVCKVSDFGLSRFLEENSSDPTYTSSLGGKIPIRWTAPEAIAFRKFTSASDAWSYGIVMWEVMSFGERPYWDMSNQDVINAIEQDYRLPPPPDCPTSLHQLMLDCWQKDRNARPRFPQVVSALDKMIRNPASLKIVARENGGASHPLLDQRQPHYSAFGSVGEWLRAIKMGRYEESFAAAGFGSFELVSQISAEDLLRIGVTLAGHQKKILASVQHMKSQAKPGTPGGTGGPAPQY
The experiment in a line: EphB4 phosphorylation induced by ephrin-B2-Fc in T47D cells. The format is cell-based. As to conditions: no ephrin, data not shown.

Assay [5] has as its target T3, recombinant human EphA2 kinase domain (Homo sapiens, UniProt P29317).
T3 sequence (P29317 613-875 limits assumed): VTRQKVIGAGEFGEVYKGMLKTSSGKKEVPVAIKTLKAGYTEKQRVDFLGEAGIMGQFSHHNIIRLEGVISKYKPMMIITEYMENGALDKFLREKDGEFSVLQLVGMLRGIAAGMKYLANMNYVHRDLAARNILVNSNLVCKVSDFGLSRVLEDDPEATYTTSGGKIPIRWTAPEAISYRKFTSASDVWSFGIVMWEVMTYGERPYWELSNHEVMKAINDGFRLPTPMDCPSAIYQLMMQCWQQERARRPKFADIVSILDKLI
The experiment in a line: EphA2 kinase assay. Format: biochemical. The following applies: 100 μM, 30 minutes.

In assay [6] the target is T4, EGF receptor (Homo sapiens, UniProt P00533). The assay is described as follows: EGF receptor phosphorylation induced by EGF in PC3 cells. Format: cell-based. The following applies: up to 100 μM, 30 ng/ml EGF.
The target of assay [7] is T1, EphA2-ephrin-A1 interaction (EphA2-Fc ectodomain). The following applies: read-out: Ki, competitive antagonist of the EphA2 receptor; earlier work; cited from earlier work.
Assay [8] has as its target T4, EGF receptor. The following applies: cited from earlier work.
The test system of a further assay is VEGF receptor. The following applies: cited from earlier work.
Another assay concerns insulin receptor. As to conditions: cited from earlier work.
Assay [9] relates to insulin-like growth factor receptor 1. The following applies: cited from earlier work.

Structures are written as SMILES. Where two headings read alike, the source gives them in different places.

We go through eleven compounds from publication PMC3677030 (ChemMedChem, 2012).

As a reminder, the Ki is the equilibrium dissociation constant of an inhibitor or competing ligand from its target. As a reminder, the Kd is a measure of binding affinity in units of concentration. Usually kon stands for the second-order rate constant of association. Usually koff stands for the first-order rate constant of dissociation. As usually defined, the IC50 is the midpoint of a concentration-inhibition curve.

T1 sequence (Q03145 26-538 limits assumed): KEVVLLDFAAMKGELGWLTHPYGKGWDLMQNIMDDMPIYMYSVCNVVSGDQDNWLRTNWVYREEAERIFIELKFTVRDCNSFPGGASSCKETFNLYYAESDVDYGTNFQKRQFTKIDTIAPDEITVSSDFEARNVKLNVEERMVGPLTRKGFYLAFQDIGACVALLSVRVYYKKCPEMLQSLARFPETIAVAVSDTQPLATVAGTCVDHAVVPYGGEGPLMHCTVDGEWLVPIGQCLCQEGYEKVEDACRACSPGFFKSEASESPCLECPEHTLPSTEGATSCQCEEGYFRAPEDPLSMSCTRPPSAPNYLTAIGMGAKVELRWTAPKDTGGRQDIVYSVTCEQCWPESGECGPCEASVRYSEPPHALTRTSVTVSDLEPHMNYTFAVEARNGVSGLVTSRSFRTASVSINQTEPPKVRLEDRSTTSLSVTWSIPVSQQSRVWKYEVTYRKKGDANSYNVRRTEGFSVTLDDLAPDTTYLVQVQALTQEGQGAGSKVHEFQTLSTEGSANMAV
EphA2 receptor (Mus musculus, UniProt Q03145), sequence (Q03145 26-538 limits assumed): as above
T4 sequence (P00533 25-1210): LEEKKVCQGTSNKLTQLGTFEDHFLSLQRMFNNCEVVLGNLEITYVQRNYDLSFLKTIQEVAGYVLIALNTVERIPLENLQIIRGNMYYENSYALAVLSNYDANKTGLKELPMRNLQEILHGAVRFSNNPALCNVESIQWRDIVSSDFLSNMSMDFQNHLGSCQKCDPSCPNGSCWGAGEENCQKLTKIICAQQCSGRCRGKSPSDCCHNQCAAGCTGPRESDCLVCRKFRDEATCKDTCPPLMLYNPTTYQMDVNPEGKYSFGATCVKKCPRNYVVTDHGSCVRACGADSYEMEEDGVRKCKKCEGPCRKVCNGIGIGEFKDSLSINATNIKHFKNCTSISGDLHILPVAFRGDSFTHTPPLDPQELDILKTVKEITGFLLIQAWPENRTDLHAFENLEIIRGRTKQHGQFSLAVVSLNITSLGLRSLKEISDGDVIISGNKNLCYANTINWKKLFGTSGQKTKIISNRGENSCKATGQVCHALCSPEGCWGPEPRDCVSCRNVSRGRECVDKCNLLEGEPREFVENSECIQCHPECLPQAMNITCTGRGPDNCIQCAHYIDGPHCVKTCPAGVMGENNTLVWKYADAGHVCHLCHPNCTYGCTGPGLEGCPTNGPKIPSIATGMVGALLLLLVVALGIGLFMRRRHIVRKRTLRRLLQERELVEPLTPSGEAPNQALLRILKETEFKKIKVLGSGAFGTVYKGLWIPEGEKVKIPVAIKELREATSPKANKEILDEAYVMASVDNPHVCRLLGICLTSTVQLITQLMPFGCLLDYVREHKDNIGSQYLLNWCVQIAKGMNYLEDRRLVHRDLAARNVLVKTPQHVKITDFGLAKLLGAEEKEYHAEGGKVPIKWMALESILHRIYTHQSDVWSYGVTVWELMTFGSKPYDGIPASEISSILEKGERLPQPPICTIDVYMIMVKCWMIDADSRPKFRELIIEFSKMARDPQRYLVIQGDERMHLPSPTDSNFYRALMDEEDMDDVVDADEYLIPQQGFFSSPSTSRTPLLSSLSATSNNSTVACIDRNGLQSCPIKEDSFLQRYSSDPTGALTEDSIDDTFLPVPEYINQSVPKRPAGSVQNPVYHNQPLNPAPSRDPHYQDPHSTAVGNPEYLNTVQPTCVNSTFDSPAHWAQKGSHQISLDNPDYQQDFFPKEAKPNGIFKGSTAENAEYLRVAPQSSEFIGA
EphA2 receptor (Homo sapiens, UniProt P29317), sequence (P29317 24-976): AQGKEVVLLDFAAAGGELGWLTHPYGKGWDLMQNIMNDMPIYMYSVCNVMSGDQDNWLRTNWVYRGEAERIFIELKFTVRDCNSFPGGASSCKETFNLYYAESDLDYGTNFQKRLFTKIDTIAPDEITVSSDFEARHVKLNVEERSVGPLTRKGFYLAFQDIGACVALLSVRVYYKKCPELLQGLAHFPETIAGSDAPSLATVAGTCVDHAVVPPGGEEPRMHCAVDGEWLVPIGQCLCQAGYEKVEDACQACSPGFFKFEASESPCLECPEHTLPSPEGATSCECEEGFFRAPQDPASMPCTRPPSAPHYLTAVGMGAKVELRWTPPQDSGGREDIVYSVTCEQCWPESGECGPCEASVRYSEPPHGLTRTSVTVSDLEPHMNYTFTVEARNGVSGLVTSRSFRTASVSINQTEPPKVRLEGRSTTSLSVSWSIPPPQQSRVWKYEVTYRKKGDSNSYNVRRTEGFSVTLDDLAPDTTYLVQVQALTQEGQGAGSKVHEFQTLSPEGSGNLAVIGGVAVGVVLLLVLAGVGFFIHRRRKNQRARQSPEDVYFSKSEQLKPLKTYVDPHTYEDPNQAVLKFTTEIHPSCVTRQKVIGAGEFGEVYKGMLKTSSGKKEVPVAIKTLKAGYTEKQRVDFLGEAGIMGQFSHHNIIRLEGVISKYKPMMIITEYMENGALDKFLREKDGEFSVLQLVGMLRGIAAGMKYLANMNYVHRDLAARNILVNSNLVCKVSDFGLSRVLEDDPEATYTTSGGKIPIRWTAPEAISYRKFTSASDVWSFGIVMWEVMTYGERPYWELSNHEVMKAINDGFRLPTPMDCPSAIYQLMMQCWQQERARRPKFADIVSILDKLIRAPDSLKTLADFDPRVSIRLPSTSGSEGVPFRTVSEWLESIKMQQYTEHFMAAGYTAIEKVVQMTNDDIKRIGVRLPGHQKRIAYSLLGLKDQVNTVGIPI

Turning to `COC(=O)CC[C@@H](C)[C@H]1CC[C@H]2[C@@H]3CC[C@@H]4C[C@H](O)CC[C@]4(C)[C@H]3CC[C@]12C` [Compound 13, methyl (3α,5β)-3-hydroxycholan-24-oate], in assay [1], the Ki was over 200 µM and the “Activity in EphA2-ephrin-A1 binding assay, in words” value (“Activity … in words” below) was “inactive or weakly active”.
For the compound `C[C@H](CCCO)[C@H]1CC[C@H]2[C@@H]3CC[C@@H]4C[C@H](O)CC[C@]4(C)[C@H]3CC[C@]12C` [Compound 16, (3α,5β)-Cholan-3,24-diol], in [1], the Ki was found to be 186 ± 27 µM and the “Activity … in words” value was “inactive or weakly active”.
Consider `C[C@H](CCC(=O)O)[C@H]1CC[C@H]2[C@@H]3[C@H](O)C[C@@H]4C[C@H](O)CC[C@]4(C)[C@H]3C[C@H](O)[C@]12C` [Compound 2, cholic acid], for which, in assay [1], the inhibition constant Ki was over 200 µM and the “Activity … in words” value was “inactive”.
For the compound `C[C@H](CCC(=O)O)[C@H]1CC[C@H]2[C@@H]3CC[C@@H]4CCCC[C@]4(C)[C@H]3CC[C@]12C` [Compound 12, (5β)-cholan-24-oic acid], the Ki in assay [1] came to 5.1 ± 1.4 µM. The compound further came in with a Schild plot slope in [1] (listed as cholanic acid) of 0.98 ± 002. Moreover, in [2], the “Selectivity between Eph receptor subfamilies, in words” value was “more selective for the EphA receptor subfamily”. The dissociation constant Kd on EphA2 receptor [3] (KD from steady state analysis, steady state affinity) is 1.16 µM; at EphA2 receptor [3] (affinity constant (KD) from kinetic analysis, koff/kon) it was 8.45 µM. Further, the kon at EphA2 receptor [3] (read-out: association rate (kon)) was 44000 M⁻¹ s⁻¹. On EphA2 receptor [3] (read-out: dissociation rate (koff)), the dissociation rate constant (koff) worked out at 0.369 s⁻¹. Besides, at EphA2 receptor [4], the “Stimulation of EphA2 tyrosine phosphorylation by compound on its own” value is “did not stimulate”. In addition, the “Stimulation of EphB4 tyrosine phosphorylation by compound on its own” value on EphB4 receptor is on record as “did not stimulate”. In addition, the “Effect on EphA2 kinase activity” value in assay [5] was “did not affect”. Besides, the “Effect on EGF receptor activation induced by EGF” value on EGF receptor [6] is given as “did not interfere”.
For `C[C@H](CCC(=O)O)[C@H]1CC[C@H]2[C@@H]3CC[C@@H]4C[C@H](O)CC[C@]4(C)[C@H]3CC[C@]12C` [Compound 1, (3α,5β)-3-hydroxycholan-24-oic acid], the Ki in [7] was 49 ± 3 µM. In addition, the “Effect on EGF receptor” value on EGF receptor [8] was “lack of effects”. In addition, the “Effect on VEGF receptor” value in the assay on VEGF receptor was “lack of effects”. For the same compound, the “Effect on insulin receptor” value in the assay with insulin receptor was “lack of effects”. Besides, the “Effect on insulin-like growth factor receptor 1” value in assay [9] is recorded as “lack of effects”.
`C[C@H](CCC(=O)O)[C@H]1CC[C@H]2[C@@H]3CC[C@@H]4C[C@@H](O)CC[C@]4(C)[C@H]3CC[C@]12C` [Compound 10, (3β,5β)-3-hydroxycholan-24-oic acid] registered an IC50 in assay [1] of 67 µM. Also, the Schild plot slope in assay [1] (listed as isolithocholic) is recorded as 0.96 ± 007.
On to `C[C@H](CCC(=O)O)[C@H]1CC[C@H]2[C@@H]3CC[C@@H]4C[C@@H](S(=O)(=O)O)CC[C@]4(C)[C@H]3CC[C@]12C` [Compound 11, (3β,5β)-3-sulfocholan-24-oic acid], for which, in [1], the Ki was over 200 µM and the “Activity … in words” value was “inactive”.
As to `C[C@H](CCC(=O)O)[C@H]1CC[C@H]2[C@@H]3CC[C@@H]4C[C@H](O)CC[C@]4(C)[C@H]3C[C@H](O)[C@]12C` [Compound 3, deoxycholic acid], in assay [1], the Ki was over 200 µM and the “Activity … in words” value is “inactive”.
The matching figures for `C[C@H](CCC(=O)NO)[C@H]1CC[C@H]2[C@@H]3CC[C@@H]4C[C@H](O)CC[C@]4(C)[C@H]3CC[C@]12C` [Compound 14, (3α,5β)-3-Hydroxycholan-24-hydroxamic acid]: over 200 µM and “inactive or weakly active”.
As to `C[C@H](CCC(=O)O)[C@H]1CC[C@H]2[C@@H]3[C@H](O)C[C@@H]4C[C@H](O)CC[C@]4(C)[C@H]3CC[C@]12C` [Compound 4, chenodeoxycholic acid], in assay [1], the inhibition constant (Ki) is over 200 µM and the “Activity … in words” value was “inactive”.
Consider `C[C@H](CCC(=O)NN)[C@H]1CC[C@H]2[C@@H]3CC[C@@H]4C[C@H](O)CC[C@]4(C)[C@H]3CC[C@]12C` [Compound 15, (3α,5β)-3-Hydroxycholan-24-hydrazide], for which, in [1], the Ki is over 200 µM and the “Activity … in words” value was “inactive or weakly active”.
